From ChEMBL document CHEMBL5380860, “Design, Synthesis, and Antitumor Activity of Potent and Selective EGFR L858R/T790M Inhibitors and Identification of a Combination Therapy to Overcome Acquired Resistance in Models of Non-small-cell Lung Cancer” (J Med Chem, 2023)

What was measured:
HCC827 [1] = test: Induction of apoptosis in human HCC827 cells assessed as early apoptotic cells at 0.1 uM incubated for 48 hrs by AnnexinV-FITC/PI staining based flow cytometry (reference value: 0.24%); assay type: functional
A549 [2] = test: Induction of cell cycle arrest in human A549 cells assessed as accumulation of cells at S phase at 0.1 uM incubated for 48 hrs by PI staining based flow cytometry (reference value: 29.4%); assay type: toxicity; settings: a549, 48 h
NCI-H1975 [3] = test: Induction of apoptosis in human NCI-H1975 cells assessed as early apoptotic cells at 0.1 uM incubated for 48 hrs by AnnexinV-FITC/PI staining based flow cytometry (reference value: 0.61%); assay type: functional
NCI-H1975 [4] = test: Induction of cell cycle arrest in human NCI-H1975 cells assessed as accumulation of cells at G1 phase at 10 uM incubated for 48 hrs by PI staining based flow cytometry (reference value: 50.1%); assay type: functional
A-431 [5] = test: Induction of cell cycle arrest in human A-431 cells assessed as accumulation of cells at S phase at 1 uM incubated for 48 hrs by PI staining based flow cytometry (reference value: 30.5%); assay type: toxicity; settings: a-431, 48 h
NCI-H1975 [6] = test: Induction of cell cycle arrest in human NCI-H1975 cells assessed as accumulation of cells at G2 phase at 0.1 uM incubated for 48 hrs by PI staining based flow cytometry (reference value: 19.3%); assay type: functional
A549 [7] = test: Induction of apoptosis in human A549 cells assessed as early apoptotic cells at 1 uM incubated for 48 hrs by AnnexinV-FITC/PI staining based flow cytometry (reference value: 3.89%); assay type: toxicity, cell-based; settings: a549, 48 h
A-431 [8] = test: Induction of apoptosis in human A-431 cells assessed as late apoptotic cells at 1 uM incubated for 48 hrs by AnnexinV-FITC/PI staining based flow cytometry (reference value: 1.86%); assay type: toxicity, cell-based; settings: a-431, 48 h
NCI-H1975 [9] = test: Induction of cell cycle arrest in human NCI-H1975 cells assessed as accumulation of cells at G1 phase at 0.1 uM incubated for 48 hrs by PI staining based flow cytometry (reference value: 50.1%); assay type: functional
A-431 [10] = test: Induction of cell cycle arrest in human A-431 cells assessed as accumulation of cells at G1 phase at 1 uM incubated for 48 hrs by PI staining based flow cytometry (reference value: 46.9%); assay type: toxicity; settings: a-431, 48 h
A549 [11] = test: Induction of cell cycle arrest in human A549 cells assessed as accumulation of cells at G1 phase at 1 uM incubated for 48 hrs by PI staining based flow cytometry (reference value: 52.4%); assay type: toxicity; settings: a549, 48 h
A549 [12] = test: Induction of apoptosis in human A549 cells assessed as early apoptotic cells at 0.1 uM incubated for 48 hrs by AnnexinV-FITC/PI staining based flow cytometry (reference value: 3.89%); assay type: toxicity, cell-based; settings: a549, 48 h
[13] = Cytotoxicity against human A549 cells harboring wild type EGFR assessed as reduction in cell viability measured after 72 hrs by MTT assay; assay type: toxicity, cell-based
[14] = molecular target: Epidermal growth factor receptor (Homo sapiens, UniProt P00533, EX19DEL); test: Inhibition of human EGFR exon del19 mutant by KINOMEscan analysis
Chain of Epidermal growth factor receptor (P00533 whole entry, looked up, stated change not applied): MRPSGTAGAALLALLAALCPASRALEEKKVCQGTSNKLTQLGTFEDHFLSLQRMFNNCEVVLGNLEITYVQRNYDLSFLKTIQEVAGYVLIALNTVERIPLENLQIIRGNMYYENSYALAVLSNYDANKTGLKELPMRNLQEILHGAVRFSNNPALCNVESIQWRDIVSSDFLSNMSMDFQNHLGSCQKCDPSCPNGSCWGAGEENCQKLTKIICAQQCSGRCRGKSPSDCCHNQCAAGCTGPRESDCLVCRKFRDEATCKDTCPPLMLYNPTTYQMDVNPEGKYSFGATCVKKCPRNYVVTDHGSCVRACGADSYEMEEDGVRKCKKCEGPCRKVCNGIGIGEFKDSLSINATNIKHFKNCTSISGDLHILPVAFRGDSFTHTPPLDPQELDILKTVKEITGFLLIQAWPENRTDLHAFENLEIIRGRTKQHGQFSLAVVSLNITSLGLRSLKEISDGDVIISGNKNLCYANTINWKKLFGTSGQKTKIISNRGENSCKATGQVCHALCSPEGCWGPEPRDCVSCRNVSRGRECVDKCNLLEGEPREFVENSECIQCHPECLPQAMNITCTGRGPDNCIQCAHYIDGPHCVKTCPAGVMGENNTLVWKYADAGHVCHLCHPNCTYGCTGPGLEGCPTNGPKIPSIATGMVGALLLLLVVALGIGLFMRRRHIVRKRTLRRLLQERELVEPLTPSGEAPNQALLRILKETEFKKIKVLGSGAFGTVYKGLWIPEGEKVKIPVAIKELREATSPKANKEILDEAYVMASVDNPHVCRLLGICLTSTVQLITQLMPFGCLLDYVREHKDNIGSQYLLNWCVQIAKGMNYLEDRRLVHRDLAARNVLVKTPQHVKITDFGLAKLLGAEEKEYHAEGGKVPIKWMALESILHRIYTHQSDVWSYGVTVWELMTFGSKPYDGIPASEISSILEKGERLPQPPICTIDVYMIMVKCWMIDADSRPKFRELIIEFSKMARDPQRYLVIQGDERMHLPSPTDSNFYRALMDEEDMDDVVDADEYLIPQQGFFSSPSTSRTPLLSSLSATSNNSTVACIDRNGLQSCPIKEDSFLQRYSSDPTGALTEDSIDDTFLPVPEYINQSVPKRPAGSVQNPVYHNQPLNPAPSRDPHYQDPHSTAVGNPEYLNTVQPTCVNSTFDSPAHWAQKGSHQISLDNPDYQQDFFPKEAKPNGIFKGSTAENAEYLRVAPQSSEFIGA

A549 [15] = test: Induction of apoptosis in human A549 cells assessed as late apoptotic cells at 1 uM incubated for 48 hrs by AnnexinV-FITC/PI staining based flow cytometry (reference value: 0.51%); assay type: toxicity, cell-based; settings: a549, 48 h
A549 [16] = test: Induction of cell cycle arrest in human A549 cells assessed as accumulation of cells at G1 phase at 10 uM incubated for 48 hrs by PI staining based flow cytometry (reference value: 52.4%); assay type: toxicity; settings: a549, 48 h
A549 [17] = test: Induction of cell cycle arrest in human A549 cells assessed as accumulation of cells at S phase at 1 uM incubated for 48 hrs by PI staining based flow cytometry (reference value: 29.4%); assay type: toxicity; settings: a549, 48 h
HCC827 [18] = test: Induction of apoptosis in human HCC827 cells assessed as late apoptotic cells at 0.1 uM incubated for 48 hrs by AnnexinV-FITC/PI staining based flow cytometry (reference value: 1.75%); assay type: functional
NCI-H1975 [19] = test: Induction of cell cycle arrest in human NCI-H1975 cells assessed as accumulation of cells at G1 phase at 1 uM incubated for 48 hrs by PI staining based flow cytometry (reference value: 50.1%); assay type: functional
A-431 [20] = test: Induction of cell cycle arrest in human A-431 cells assessed as accumulation of cells at S phase at 10 uM incubated for 48 hrs by PI staining based flow cytometry (reference value: 30.5%); assay type: toxicity; settings: a-431, 48 h
NCI-H1975 [21] = test: Induction of cell cycle arrest in human NCI-H1975 cells assessed as accumulation of cells at S phase at 1 uM incubated for 48 hrs by PI staining based flow cytometry (reference value: 29.8%); assay type: functional
NCI-H1975 [22] = test: Induction of cell cycle arrest in human NCI-H1975 cells assessed as accumulation of cells at S phase at 0.1 uM incubated for 48 hrs by PI staining based flow cytometry (reference value: 29.8%); assay type: functional
HCC827 [23] = test: Induction of cell cycle arrest in human HCC827 cells assessed as accumulation of cells at G2 phase at 1 uM incubated for 48 hrs by PI staining based flow cytometry (reference value: 25.9%); assay type: functional
A-431 [24] = test: Induction of cell cycle arrest in human A-431 cells assessed as accumulation of cells at G2 phase at 0.1 uM incubated for 48 hrs by PI staining based flow cytometry (reference value: 21.7%); assay type: toxicity; settings: a-431, 48 h
A549 [25] = test: Induction of cell cycle arrest in human A549 cells assessed as accumulation of cells at G2 phase at 0.1 uM incubated for 48 hrs by PI staining based flow cytometry (reference value: 18.1%); assay type: toxicity; settings: a549, 48 h
HCC827 [26] = test: Induction of apoptosis in human HCC827 cells assessed as late apoptotic cells at 1 uM incubated for 48 hrs by AnnexinV-FITC/PI staining based flow cytometry (reference value: 1.75%); assay type: functional
A-431 [27] = test: Induction of cell cycle arrest in human A-431 cells assessed as accumulation of cells at G2 phase at 1 uM incubated for 48 hrs by PI staining based flow cytometry (reference value: 21.7%); assay type: toxicity; settings: a-431, 48 h
A549 [28] = test: Induction of apoptosis in human A549 cells assessed as late apoptotic cells at 10 uM incubated for 48 hrs by AnnexinV-FITC/PI staining based flow cytometry (reference value: 0.51%); assay type: toxicity, cell-based; settings: a549, 48 h
HCC827 [29] = test: Induction of cell cycle arrest in human HCC827 cells assessed as accumulation of cells at G1 phase at 0.1 uM incubated for 48 hrs by PI staining based flow cytometry (reference value: 65.2%); assay type: functional
A-431 [30] = test: Induction of apoptosis in human A-431 cells assessed as late apoptotic cells at 10 uM incubated for 48 hrs by AnnexinV-FITC/PI staining based flow cytometry (reference value: 1.86%); assay type: toxicity, cell-based; settings: a-431, 48 h
A549 [31] = test: Induction of apoptosis in human A549 cells assessed as late apoptotic cells at 0.1 uM incubated for 48 hrs by AnnexinV-FITC/PI staining based flow cytometry (reference value: 0.51%); assay type: toxicity, cell-based; settings: a549, 48 h
HCC827 [32] = test: Induction of apoptosis in human HCC827 cells assessed as early apoptotic cells at 10 uM incubated for 48 hrs by AnnexinV-FITC/PI staining based flow cytometry (reference value: 0.24%); assay type: functional

Row | Structure (SMILES) | Activity (HCC827 [1]) | Activity (A549 [2]) | Activity (NCI-H1975 [3]) | Activity (NCI-H1975 [4]) | Activity (A-431 [5]) | Activity (NCI-H1975 [6]) | Activity (A549 [7]) | Activity (A-431 [8]) | Activity (NCI-H1975 [9]) | Activity (A-431 [10]) | Activity (A549 [11]) | Activity (A549 [12]) | IC50 at 72 h [13] | Activity (A549 [15]) | Activity (A549 [16]) | Activity (A549 [17]) | Activity (HCC827 [18]) | Activity (NCI-H1975 [19]) | Activity (A-431 [20]) | Activity (NCI-H1975 [21]) | further results
1 | C=CC(=O)Nc1cccc(Nc2nc(Nc3ccc(N4CCN(C)CC4)cc3)nc3ccc(F)cc23)c1 | 10.1% | 25.9% | 7.05% | 80.5% | 27.6% | 15.5% | 6.44% | 2.9% | 67.1% | 54.1% | 61.2% | 4.3% | 4020 nM | 0.98% | 63.8% | 26.4% | 8.22% | 72.2% | 20.4% | 16.4% | IC50 [14]: 1.3 nM; Activity (NCI-H1975 [22]): 17.5%; Activity (HCC827 [23]): 12.2%; Activity (A-431 [24]): 17.4%; Activity (A549 [25]): 16.5%; Activity (HCC827 [26]): 11.8%; Activity (A-431 [27]): 18.6%; Activity (A549 [28]): 0.2%; Activity (HCC827 [29]): 74%; Activity (A-431 [30]): 3.43%; Activity (A549 [31]): 0.8%; Activity (HCC827 [32]): 28.4%
2 | C=CC(=O)Nc1cc(Nc2nccc(-c3cn(C)c4ccccc34)n2)c(OC)cc1N(C)CCN(C)C [OSIMERTINIB] | 15.2% | 30.9% | 7.15% | 78.3% | 28.1% | 20.2% | 8% | 6.74% | 64.3% | 52.5% | 57.7% | 4.13% | 682 nM | 0.85% | 74.6% | 29.1% | 15.7% | 71.5% | 23.9% | 18.9% | Activity (NCI-H1975 [22]): 16.2%; Activity (HCC827 [23]): 10.9%; Activity (A-431 [24]): 19.9%; Activity (A549 [25]): 15.1%; Activity (HCC827 [26]): 18%; Activity (A-431 [27]): 19.6%; Activity (A549 [28]): 0.47%; Activity (HCC827 [29]): 72.9%; Activity (A-431 [30]): 19.4%; Activity (A549 [31]): 0.88%; Activity (HCC827 [32]): 20.4%
